Assay results published in patent publication US20200093821A1, “Pharmaceutical Compositions of a Benzothiophene Compound” (Hexal AG, priority 2016, published 2020).

Tests used:
[1] = UV irradiation of suspensions in oils, HPLC analysis; assay type: physicochemical; details: irradiated 4 hours; for Brexpiprazole (area) / Compound I (area) / Compound II (area): HPLC
Experimental: [table] Suspensions of brexpiprazole anhydrate or brexpiprazole dihydrate (about 10 mg per experiment) in different oils (about 105 mg per suspension) were prepared and irradiated for 4 hours.

[2] = UV exposure of solid brexpiprazole forms (Atlas Suntester XLS+); assay type: physicochemical; details: 60 h Suntester
Text: Brexpiprazole anhydrate and brexpiprazole dihydrate were respectively exposed to UV-radiation using an appropriate illumination device (Atlas Suntester XLS+) at 250 W/m^2 for 60 hrs, which corresponds to a total UV light intensity of […].

[3] = UV lamp irradiation of brexpiprazole solution in toluene/methanol; assay type: physicochemical
Experimental: For the structure determination of the compound of formula II in Example 2 it was therefore necessary to produce larger quantities of that compound. […] The suspension was heated to 50° C. After stirring for 10 minutes, a clear solution was obtained. The solution was put into a transparent glass vial and irradiated for 18 h by a UV lamp (UVHQ 250 Z by “UV Technik Speziallampen”; radiation strength UVC/UVB/UVA: 38 W at 200 nm-280 nm; 20 W at 280 nm-315 nm; 18 W at 315 nm-400 nm). A light brown, clear solution was obtained. A mixture of brexpiprazole and compound II was obtained (19:81 area %).

[4] = target: T1, serotonin 5-HT1A receptors (Homo sapiens, UniProt P08908); details: cited from earlier work
T1 sequence (P08908 1-422): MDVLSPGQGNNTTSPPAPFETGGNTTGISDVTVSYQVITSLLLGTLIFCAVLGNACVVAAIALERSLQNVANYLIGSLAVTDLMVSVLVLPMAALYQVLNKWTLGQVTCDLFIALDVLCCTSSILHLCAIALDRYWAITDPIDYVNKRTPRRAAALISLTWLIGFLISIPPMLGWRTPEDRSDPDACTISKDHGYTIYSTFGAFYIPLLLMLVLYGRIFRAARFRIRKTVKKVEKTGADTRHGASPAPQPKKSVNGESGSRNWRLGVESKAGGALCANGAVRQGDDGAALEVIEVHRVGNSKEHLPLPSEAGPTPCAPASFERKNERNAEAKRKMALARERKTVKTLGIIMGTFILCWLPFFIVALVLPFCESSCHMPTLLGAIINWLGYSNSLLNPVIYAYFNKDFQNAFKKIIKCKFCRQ

[5] = target: dopamine D2 receptors (Homo sapiens, UniProt P14416); details: cited from earlier work
[6] = target: serotonin 5-HT2A receptors (Homo sapiens, UniProt P28223); details: cited from earlier work
[7] = suspension in castor oil, listed as Brx. Anhydrate
[8] = suspension in peanut oil, listed as Brx. Anhydrate
[9] = suspension in castor oil, listed as Brx. Dihydrate
[10] = suspension in peanut oil, listed as Brx. Dihydrate
[11] = toluene/methanol solution, UV lamp 18 h

dopamine D2 receptors, sequence (P14416 whole entry): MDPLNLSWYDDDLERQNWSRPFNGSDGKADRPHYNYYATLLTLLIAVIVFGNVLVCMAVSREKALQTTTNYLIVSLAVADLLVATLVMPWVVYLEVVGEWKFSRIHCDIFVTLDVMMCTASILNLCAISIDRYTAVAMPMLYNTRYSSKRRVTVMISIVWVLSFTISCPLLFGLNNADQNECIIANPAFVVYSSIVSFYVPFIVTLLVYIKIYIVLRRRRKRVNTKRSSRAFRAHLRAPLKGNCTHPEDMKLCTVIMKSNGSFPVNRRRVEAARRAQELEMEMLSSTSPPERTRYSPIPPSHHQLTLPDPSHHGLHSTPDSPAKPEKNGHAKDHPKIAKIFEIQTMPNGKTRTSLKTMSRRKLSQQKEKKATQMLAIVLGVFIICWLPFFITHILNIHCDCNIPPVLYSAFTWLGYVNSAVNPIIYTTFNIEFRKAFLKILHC
serotonin 5-HT2A receptors, sequence (P28223 whole entry): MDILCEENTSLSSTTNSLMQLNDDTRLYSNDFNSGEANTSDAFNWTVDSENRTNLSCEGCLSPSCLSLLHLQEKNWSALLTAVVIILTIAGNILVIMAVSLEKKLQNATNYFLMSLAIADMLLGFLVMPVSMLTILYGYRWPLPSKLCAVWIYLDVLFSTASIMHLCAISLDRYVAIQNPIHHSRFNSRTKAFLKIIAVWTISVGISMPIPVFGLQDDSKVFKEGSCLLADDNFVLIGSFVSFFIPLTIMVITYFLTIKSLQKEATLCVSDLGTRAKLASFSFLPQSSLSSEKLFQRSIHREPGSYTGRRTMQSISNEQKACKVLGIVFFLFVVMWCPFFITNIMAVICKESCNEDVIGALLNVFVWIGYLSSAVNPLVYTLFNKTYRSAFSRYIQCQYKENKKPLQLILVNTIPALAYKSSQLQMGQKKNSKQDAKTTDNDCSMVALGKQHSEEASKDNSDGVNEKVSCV

SMILES: O=c1ccc2ccc(OCCCCN3CCN(c4cccc5sccc45)CC3)cc2[nH]1 [Brexpiprazole Anhydrate]
- Brexpiprazole (area) [1, 7]: 99.6%
- Compound I (area) [1, 7]: 0.0%
- Compound II (area) [1, 7]: 0.4%
- Brexpiprazole (area) ([1]; suspension in corn oil): 99.8%
- Compound I (area) ([1]; suspension in corn oil): 0.0%
- Compound II (area) ([1]; suspension in corn oil): 0.2%
- Brexpiprazole (area) [1, 8]: 99.8%
- Compound I (area) [1, 8]: 0.0%
- Compound II (area) [1, 8]: 0.2%

SMILES: O=c1ccc2ccc(OCCCCN3CCN(c4cccc5sccc45)CC3)cc2[nH]1 [Brexpiprazole Dihydrate]
- sensitivity to UV-induced dimerization vs anhydrate form [2]: significantly more sensitive
- sensitivity to UV-induced dimerization vs brexpiprazole anhydrate ([1]; oil suspensions): more sensitive
- Brexpiprazole (area) [1, 9]: 61.7%
- Compound I (area) [1, 9]: 35.1%
- Compound II (area) [1, 9]: 3.2%
- Brexpiprazole (area) ([1]; suspension in corn oil): 64.9%
- Compound I (area) ([1]; suspension in corn oil): 32.2%
- Compound II (area) ([1]; suspension in corn oil): 3.0%
- Brexpiprazole (area) [1, 10]: 64.3%
- Compound I (area) [1, 10]: 32.4%
- Compound II (area) [1, 10]: 3.3%

SMILES: O=c1ccc2ccc(OCCCCN3CCN(c4cccc5sccc45)CC3)cc2[nH]1 [Brexpiprazole, 7-[4-[4-(1-Benzothiophen-4-yl)piperazin-1-yl]butoxy]quinolin-2(1H)-one]
- sensitivity to UV-radiation vs brexpiprazole anhydrate ([3]; brexpiprazole in solution): significantly more sensitive
- stability in control experiment ([3]; solution protected from UV light, vial wrapped in aluminum foil): remained stable
- brexpiprazole remaining in mixture [3, 11]: 19 area %
- compound II formed in mixture [3, 11]: 81 area %
- activity at serotonin 5-HT1A receptors [4]: partial agonist activity
- activity at dopamine D2 receptors [5]: partial agonist activity
- activity at serotonin 5-HT2A receptors [6]: antagonist activity
